The results in this text go back to ChEMBL document CHEMBL1201862, “PubChem BioAssay data set” (2004).

Some test systems named below: A549; CCRF-CEM; COLO 205; EKVX; HCT-116; HCT-15; KM12; MCF7; MDA-MB-435; MDA-N; MOLT-4; NCI-H23; PC-3; SK-MEL-28; SNB-19; SW-620; TK-10; U-251; K562.
Test in all cases: NCI anticancer screen, dose series, 48 h

Molecules are shown by their SMILES.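 Compound exposure: 48 hours, 5 concentrations, 96-well plates. At the GI50, growth is halved.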 The source made the active and inactive calls. Cut-off read from the data, not from the text of the source: active = GI50 up to about 1.1 µM and inactive = higher.

With `CC1NC(C(=O)O)Cc2cc(O)c(O)cc21` (configuration not stated), the GI50 with A549 is > 100 µM (inactive); in the test on CCRF-CEM it was 91.2 µM (inactive); with COLO 205, > 100 µM (inactive); in the test on EKVX it was > 100 µM (inactive); in the test on HCT-116, > 100 µM (inactive); in the test with HCT-15 it was greater than 100 µM. The GI50 with KM12, in the test on MCF7, in the test on MDA-MB-435, in the test on MDA-N, in the test with MOLT-4 and in the test with NCI-H23 was > 100 µM (inactive) throughout. In addition, the GI50 in the test with PC-3, in the test on SK-MEL-28, with SNB-19, in the test with SW-620, with TK-10 and with U-251 was > 100 µM (inactive) throughout.

Regarding `Cn1c(=O)c2c(no[n+]2[O-])c2ccccc21`, the GI50 in the test with A549 is 23.3 µM (inactive); in the test on CCRF-CEM it was 12.8 µM (inactive); in the test on COLO 205, 17.7 µM (inactive); in the test with EKVX, 18.3 µM (inactive); in the test with HCT-116 it was 12.9 µM (inactive); in the test on HCT-15 it was 11.1 µM. Besides, the GI50 in the test with K562 is 14.3 µM (inactive); with KM12, 12.4 µM (inactive); in the test on MCF7, 24.7 µM (inactive); in the test with MDA-MB-435, 24.8 µM (inactive); in the test on MDA-N, 26.4 µM (inactive); in the test with MOLT-4, 10.5 µM (inactive). For the same compound, the GI50 with NCI-H23 is 15 µM (inactive); in the test on PC-3, 24.9 µM (inactive); in the test with SNB-19, 26.4 µM (inactive); with SW-620, 20 µM (inactive); with TK-10, 27.8 µM (inactive); with U-251, 15.8 µM (inactive).

For the compound `Cc1cccc(/C(Br)=C2/OC(=O)c3ccccc32)c1`, the GI50 with A549 is > 100 µM (inactive); with CCRF-CEM, > 100 µM (inactive); with COLO 205 it was > 100 µM (inactive); in the test on EKVX, > 100 µM (inactive); in the test on HCT-116 it was > 100 µM (inactive); with HCT-15, greater than 100 µM. Also, the GI50 in the test with KM12, with MCF7, in the test with MDA-MB-435, in the test on MDA-N, in the test on MOLT-4 and in the test with NCI-H23 was > 100 µM (inactive) each time. Moreover, the GI50 in the test with PC-3, in the test with SK-MEL-28, in the test on SW-620, with TK-10 and in the test on U-251 was > 100 µM (inactive) in each case.

As to `CSc1nc2c(c(=O)[nH]1)N=C(c1ccc([N+](=O)[O-])cc1)CC(c1ccccc1)N2` (configuration not stated), the GI50 is 32.4 µM (inactive) in the test with A549; 29.2 µM (inactive) in the test on CCRF-CEM; 55.1 µM (inactive) in the test with COLO 205; 36.4 µM (inactive) in the test with EKVX; 21.4 µM (inactive) with HCT-116; 34.4 µM (inactive) with K562. Besides, the GI50 with KM12 is 17.9 µM (inactive); in the test with MCF7, 23.7 µM (inactive); with MDA-MB-435, 28.2 µM (inactive); in the test on MDA-N, 38.2 µM (inactive); in the test with MOLT-4, 31.3 µM (inactive); with NCI-H23, 41.3 µM (inactive). Also, the GI50 in the test with PC-3 was 49.4 µM (inactive); in the test with SK-MEL-28, 22.7 µM (inactive); in the test with SNB-19 it was > 100 µM (inactive); with SW-620, 22.9 µM (inactive); with U-251, 33.6 µM (inactive).

Turning to `O=C(COc1ccc(OCC(=O)N2C(=O)CC(=O)N(c3ccc(Cl)cc3)C2=S)cc1)N1C(=O)CC(=O)N(c2ccc(Cl)cc2)C1=S`, the GI50 in the test with A549 is 22.6 µM (inactive); in the test with COLO 205, 18.2 µM (inactive); with EKVX, 42.2 µM (inactive); in the test with HCT-116 it was 10.1 µM (inactive); in the test with HCT-15, 24.3 µM; in the test with K562, 19.4 µM (inactive). Moreover, the GI50 in the test on KM12 was 15.7 µM (inactive); in the test on MCF7, 35.1 µM (inactive); in the test on MDA-MB-435 it was 32 µM (inactive); with MDA-N it was 28.1 µM (inactive); in the test with MOLT-4, 17.9 µM (inactive); in the test with NCI-H23, 25.8 µM (inactive). For the same compound, the GI50 with PC-3 was 29.3 µM (inactive); in the test on SK-MEL-28, 50.4 µM (inactive); with SNB-19, 26.9 µM (inactive); in the test with SW-620 it was 53.1 µM (inactive); in the test with TK-10, 37.3 µM (inactive); with U-251 it was 33.3 µM (inactive).

Take `Oc1ccc(O)c(CNc2ccc(C(O)C(F)(F)F)cc2)c1` (configuration not stated): the GI50 with A549 is 31.6 µM (inactive); in the test on CCRF-CEM it was 3.21 µM (inactive); with COLO 205, 18.5 µM (inactive); in the test on EKVX, 14.5 µM (inactive); in the test with HCT-116, 16.7 µM (inactive); with HCT-15, 13.7 µM. The GI50 in the test on K562 was 11.9 µM (inactive); in the test with MCF7, 21.8 µM (inactive); in the test with MDA-MB-435, 11.9 µM (inactive); in the test on MDA-N, 9.86 µM (inactive); in the test with MOLT-4, 5.01 µM (inactive); in the test on NCI-H23, 21.4 µM (inactive). Besides, the GI50 with PC-3 was 16.3 µM (inactive); in the test with SK-MEL-28, 31.6 µM (inactive); with SNB-19, 44.9 µM (inactive); with SW-620, 32.2 µM (inactive); in the test on TK-10 it was 17.8 µM (inactive); in the test on U-251, 35.8 µM (inactive).

For the compound `O=c1c2cc(-c3ccccc3)cnc2sn1-c1ccc([N+](=O)[O-])cc1`, the GI50 in the test on A549 is 31.8 µM (inactive); in the test with CCRF-CEM, 19 µM (inactive); in the test on COLO 205, > 100 µM (inactive); in the test with EKVX, 53 µM (inactive); in the test on HCT-116, 21.3 µM (inactive); in the test with HCT-15 it was 55.2 µM. For the same compound, the GI50 is 35.8 µM (inactive) in the test on K562; 38.9 µM (inactive) in the test with KM12; 49 µM (inactive) with MCF7; 42.3 µM (inactive) with MDA-MB-435; 60.4 µM (inactive) in the test on MDA-N; 71.3 µM (inactive) in the test with MOLT-4. Further, the GI50 in the test on NCI-H23 was 15.1 µM (inactive); in the test on PC-3, 33.7 µM (inactive); in the test with SK-MEL-28, 58.1 µM (inactive); in the test on SNB-19, 25.4 µM (inactive); in the test on SW-620, 94.8 µM (inactive); in the test with U-251, 21.6 µM (inactive).

For the compound `COC(=O)C(Cc1nc2ccccc2nc1O)C(=O)C(=O)Nc1cc(C(F)(F)F)ccc1Cl` (configuration not stated), the GI50 was 69.2 µM (inactive) in the test on A549; 1.51 µM (inactive) in the test on CCRF-CEM; 15 µM (inactive) with EKVX; 18.2 µM (inactive) in the test with HCT-116; 13.8 µM with HCT-15; 12 µM (inactive) in the test on K562. Besides, the GI50 in the test on KM12 is 14.5 µM (inactive); in the test on MCF7, 14.4 µM (inactive); in the test with MDA-MB-435, 19.4 µM (inactive); in the test with MDA-N, 25.9 µM (inactive); in the test with MOLT-4, 6.17 µM (inactive); in the test on NCI-H23, 14.2 µM (inactive). For the same compound, the GI50 with PC-3 is 17 µM (inactive); in the test with SK-MEL-28, 25.4 µM (inactive); with SW-620, 13.8 µM (inactive); in the test on TK-10, 21.1 µM (inactive); in the test on U-251 it was 9.91 µM (inactive).

With `COc1ccc(CCN2CCc3c(C)c(C#N)c4nc5ccccc5n4c32)cc1OC`, the GI50 with A549 was 45.9 µM (inactive); with CCRF-CEM it was 35.4 µM (inactive); in the test with COLO 205 it was 30.3 µM (inactive); with HCT-116, 28.7 µM (inactive); with HCT-15, 29 µM; in the test with K562, 15.6 µM (inactive). In addition, the GI50 in the test on MCF7 is 18 µM (inactive); in the test with MDA-MB-435 it was 14.3 µM (inactive); with MDA-N, 19.1 µM (inactive); with NCI-H23 it was 45.3 µM (inactive); in the test with PC-3, 25.9 µM (inactive); in the test with SK-MEL-28, 39.5 µM (inactive). In addition, the GI50 in the test on SNB-19 was > 100 µM (inactive); with SW-620, 26.6 µM (inactive); with TK-10 it was 64.1 µM (inactive); with U-251 it was 15.6 µM (inactive).

With `CC(=O)Oc1ccc2c3c1[C@@H]1O[C@@H]1c1cccc(c1-3)[C@@H]1O[C@H]21`, the GI50 was 2.32 µM (inactive) in the test with A549; 0.601 µM (active) with CCRF-CEM; 1.99 µM (inactive) with COLO 205; 2.02 µM (inactive) with EKVX; 1.66 µM (inactive) in the test on HCT-116; 1.66 µM in the test on HCT-15. Moreover, the GI50 with KM12 was 2.05 µM (inactive); in the test with MCF7, 2.55 µM (inactive); in the test on MDA-MB-435, 1.14 µM (inactive); in the test on MDA-N it was 1.84 µM (inactive); in the test on NCI-H23, 1.63 µM (inactive); in the test on PC-3, 2.33 µM (inactive). Moreover, the GI50 is 1.96 µM (inactive) with SK-MEL-28; 3.01 µM (inactive) with SNB-19; 1.14 µM (inactive) with SW-620; 2.08 µM (inactive) in the test on TK-10; 2.12 µM (inactive) with U-251.

In the case of `Nc1n[n+]([O-])c2cc([N+](=O)[O-])ccc2[n+]1[O-]`, the GI50 is 18.9 µM (inactive) with A549; 1.62 µM (inactive) with CCRF-CEM; 3.85 µM (inactive) with COLO 205; > 10 µM (inactive) in the test on EKVX; 2.9 µM (inactive) with HCT-116; 3.14 µM with HCT-15. In addition, the GI50 in the test with K562 was 2.14 µM (inactive); in the test with MCF7, 3.36 µM (inactive); in the test on MDA-MB-435, 1.75 µM (inactive); with MDA-N it was 2.07 µM (inactive); with MOLT-4, 0.787 µM (active); with NCI-H23 it was 13.8 µM (inactive). Besides, the GI50 in the test on PC-3 was 2.19 µM (inactive); in the test on SK-MEL-28, 29 µM (inactive); in the test on SNB-19, 13.6 µM (inactive); with SW-620, 2.22 µM (inactive); with TK-10, 30.2 µM (inactive); with U-251, 4.61 µM (inactive).
